Results from US20250213529A1, “5-METHOXY-N.N-[…][…] THE TREATMENT OF PSYCHOMOTOR RETARDATION” (GH RESEARCH IRELAND LIMITED, priority 2022, published 2025).

What was measured:
[1] = system: Salmonella typhimurium (TA98, TA100, TA1535 and TA1537); test: Bacterial mutation test, Salmonella typhimurium; format: cell-based; settings: up to 5000 µg/plate; absence and presence of rat liver S-9
Text: (§1) These conditions included treatments at concentrations up to […] (the maximum recommended concentration according to current regulatory guidelines), in the absence and in the presence of a rat liver metabolic activation system (S-9).

[2] = system: Escherichia coli (WP2 uvrA pKM101); test: Bacterial mutation test, Escherichia coli; format: cell-based; settings: up to 5000 pg/plate; absence and presence of rat liver S-9
Text: as §1

[3] = Pharmacokinetics of 5-MeO-DMT and bufotenine after inhalation; format: in vivo, human; settings: after 3 hours, 6, 12, 18 mg
[4] = system: patients with postpartum depression (PPD); test: Clinical trial in patients with postpartum depression; settings: PPD patient (n=1); for Total MADRS improvement / Total MADRS score: baseline 29; for BPRS Tension improvement: baseline 6
Procedure: The single-arm, open-label clinical trial will involve 15 adult female patients with clinically diagnosed postpartum depression (PPD).
The second dose (12 mg) will only be administered if: • a. […] The 6 mg dose was safe and well-tolerated according to the investigator, • c. Any psychoactive effects (PsE) of the prior dose have subsided, and • d. Pre-dose vital parameters and forced expiratory volume in one second (FEV1) are in normal range, or if outside of the normal range, are not clinically significant according to the investigator. • 3. Similarly, a third dose (18 mg) will only be administered if: • a. […] The 12 mg dose was safe and well-tolerated according to the investigator, and • c. Any PsE of the prior dose have subsided, and • d. Pre-dose vital parameters and forced expiratory volume in one second (FEV1) are in normal range, or if outside of the normal range, are not clinically significant according to the investigator.
The patients will be assessed for a peak psychedelic experience (based on a patient-scored visual analogue scale, the PE scale), sedation, and other endpoints after dosing. Follow-up visits are planned for Day 1, and Day 7 after the dosing day.
The following criteria must be met by all patients considered for clinical trial participation: • 1. Is female and in the age range between 18 and 45 years (inclusive) at screening. • 2. Has a body mass index (BMI) in the range of 18.5 and 35 kg/m^2 (inclusive) at screening. • 3. Meets the trial criteria for PPD as assessed by a trial psychiatrist or registered psychologist: • a. Diagnosis of Major Depressive Disorder without psychotic features, confirmed by the Mini-International Neuropsychiatric Interview (MINI), with peri-partum onset that began no earlier than gestation and no later than the first 4 weeks postpartum. • b. Has a Montgomery-Åsberg Depression Rating Scale (MADRS) total score of equal to or greater than 28 at screening and pre-dose on Day 0. • 6. […] Patients must have a negative pregnancy test at screening and on the pre-test day (Day −1). • 5. Is willing to delay start of other antidepressant or anxiety medication until after the end of the trial at Day 7 and agrees to keep any psychotherapy unchanged during the trial.
A potential patient who meets any of the following key exclusion criteria will be excluded from participation in this trial: • 1. Has, based on history, psychiatric assessment, and evaluation of the MINI, a current or prior diagnosis of bipolar disorder, a manic or hypomanic episode, a psychotic disorder, Major Depressive Disorder (MDD) or other mood disorder with psychotic features, obsessive compulsive disorder, post-traumatic stress disorder (PTSD), autism spectrum disorder, borderline personality disorder, schizophrenia, delusional disorder, paranoid personality disorder, schizoaffective disorder, clinically significant intellectual disability, or any other psychiatric comorbidity that renders the patient unsuitable for the trial according to the investigator's judgment. • 2. Has one or more first or second degree relatives with a current or previously diagnosed bipolar disorder, psychotic disorder or other mood disorder (including MDD) with psychotic features. • 3. Is in the judgement of a trial psychiatrist or registered psychologist, at significant risk for suicide based on history, psychiatric assessment, and evaluation of suicidal ideation and suicidal behaviour based on the Columbia-Suicide Severity Rating Scale (C-SSRS). • 4. Has taken anti-depressive medication within 14 days or 5 half-lives (whichever is longer) prior to dosing (exception: within the last 5 weeks in the case of fluoxetine). • 5.

[5] = IDR 6 then 12 mg inhaled, Day 0 score 5
[6] = IDR 6 then 12 mg inhaled, Day 0 score 6
[7] = IDR 6 then 12 mg inhaled, Day 1
[8] = IDR 6 then 12 mg inhaled, Day 7, Day 0 score 5
[9] = IDR 6 then 12 mg inhaled, Day 7, Day 0 score 6
[10] = IDR 6 then 12 mg inhaled, Day 7
[11] = IDR 6 then 12 mg inhaled, Day 7 vs Day 0

Which Induction of mutation [1] does the source give for `COc1ccc2[nH]cc(CCN(C)C)c2c1` [5-MeO-DMT] here?
Its Induction of mutation is “did not induce mutation”.

What about the Induction of mutation [2] of the same compound?
The Induction of mutation was “did not induce mutation”.

And the Detectability in plasma [3]?
Its Detectability in plasma is “no longer detectable”.

And the “Tolerability of the inhalation procedure” value [4]?
The value was “well tolerated with no inhalation-related adverse events”.

And the “Reported adverse events (cramping left abdominal pain and headache)” value ([4]; Day 0)?
The value was “mild, short-lasting and resolved spontaneously”.

And the “BIMF total score improvement, percent” value ([4]; Day 7, from 92 to 105)?
Its value is 14%.

And the “ECG, safety laboratory analyses, CADSS” value ([4]; ECG 3 hours, laboratory 7 days, CADSS 3 hours, 1 day, 7 days)?
The value was “unremarkable”.

And the “MADRS remission (MADRS total score equal or less than 10)” value ([4]; IDR 6 then 12 mg inhaled)?
The value was “fulfilled”.

And the “MADRS response (at least 50% improvement from baseline)” value ([4]; IDR 6 then 12 mg inhaled)?
Its value is “fulfilled”.

What about the “Onset of clinical response after administration” value ([4]; IDR 6 then 12 mg inhaled) of the same compound?
Its value is no more than 2 h.

And the “Time to clinical remission after administration” value ([4]; IDR 6 then 12 mg inhaled)?
Its value is no more than 2 h.

What about the “Durability of clinical response” value ([4]; IDR 6 then 12 mg inhaled, given once) of the same compound?
The value was “sustained over the 7-day follow-up period”.

And the “Total MADRS improvement” value ([4]; IDR 6 then 12 mg inhaled, 2 hr)?
Its value is 24.

What about the “Total MADRS score” value ([4]; IDR 6 then 12 mg inhaled, 2 hr) of the same compound?
Its value is 5.

And the “BIMF item 19 (As time goes on, I am getting better at taking care of my baby) Δ (Day 7)” value ([4]; IDR 6 then 12 mg inhaled, Day 0 score 0)?
Its value is 1.

And the “BIMF item 13 (I am taking good care of my physical needs) Δ (Day 7)” value ([4]; IDR 6 then 12 mg inhaled, Day 0 score 4)?
The value was 1.

And the “BIMF item 5 (I am able to relax and enjoy time with my baby) Δ (Day 7)” value [4, 5]?
Its value is 1.

And the “BIMF item 9 (I am getting enough encouragement from other people) Δ (Day 7)” value [4, 5]?
The value was 1.

And the “BIMF item 10 (I trust my own feelings (instincts) when it comes to taking care of my baby) Δ (Day 7)” value [4, 5]?
The value was 1.

And the “BIMF item 11 (I take a little time each week to do something for myself) Δ (Day 7)” value [4, 5]?
The value was 1.

And the “BIMF item 17 (I am able to take care of my baby and my other responsibilities) Δ (Day 7)” value [4, 5]?
The value was 0.

What about the “BIMF item 3 (I am comfortable with the way I've chosen to feed my baby) Δ (Day 7)” value [4, 6] of the same compound?
Its value is 0.

What about the “BIMF item 6 (There are people in my life that I can trust to care for my baby when I need a break) Δ (Day 7)” value [4, 6] of the same compound?
Its value is 0.

And the “BIMF item 8 (I am getting enough adult interaction) Δ (Day 7)” value [4, 6]?
Its value is 0.

What about the “BIMF item 12 (I am taking good care of my baby's physical needs) Δ (Day 7)” value [4, 6] of the same compound?
The value was 0.

And the “BIMF item 14 (I make good decisions about my baby's health and well being) Δ (Day 7)” value [4, 6]?
Its value is 0.

What about the “BIMF item 20 (I am satisfied with the job I am doing as a new mother) Δ (Day 7)” value [4, 6] of the same compound?
The value was −1.

What about the “BIMF TOTAL Δ (Day 7)” value ([4]; IDR 6 then 12 mg inhaled, Day 0 score 92) of the same compound?
The value was 13.

And the “BPRS Tension improvement” value [4, 7]?
The value was 5.

What about the “Total MADRS improvement” value [4, 7] of the same compound?
The value was 29.

What about the “Total MADRS score” value [4, 7] of the same compound?
Its value is 0.

What about the “BIMF item 19 (As time goes on, I am getting better at taking care of my baby) score” value ([4]; IDR 6 then 12 mg inhaled, Day 7, Day 0 score 0) of the same compound?
The value was 1.

What about the “BIMF item 16 (I worry about how other people judge me (as a mother)) score” value ([4]; IDR 6 then 12 mg inhaled, Day 7, Day 0 score 3) of the same compound?
The value was 5.

And the “BIMF item 13 (I am taking good care of my physical needs) score” value ([4]; IDR 6 then 12 mg inhaled, Day 7, Day 0 score 4)?
The value was 5.

What about the “BIMF item 5 (I am able to relax and enjoy time with my baby) score” value [4, 8] of the same compound?
Its value is 6.

And the “BIMF item 9 (I am getting enough encouragement from other people) score” value [4, 8]?
The value was 6.

What about the “BIMF item 10 (I trust my own feelings (instincts) when it comes to taking care of my baby) score” value [4, 8] of the same compound?
The value was 6.

And the “BIMF item 11 (I take a little time each week to do something for myself) score” value [4, 8]?
Its value is 6.

What about the “BIMF item 17 (I am able to take care of my baby and my other responsibilities) score” value [4, 8] of the same compound?
The value was 5.

What about the “BIMF functional domain Adjustment score” value ([4]; IDR 6 then 12 mg inhaled, Day 7, Day 0 score 5, maximum 12) of the same compound?
Its value is 6.

What about the “BIMF item 3 (I am comfortable with the way I've chosen to feed my baby) score” value [4, 9] of the same compound?
The value was 6.

And the “BIMF item 6 (There are people in my life that I can trust to care for my baby when I need a break) score” value [4, 9]?
Its value is 6.

What about the “BIMF item 8 (I am getting enough adult interaction) score” value [4, 9] of the same compound?
Its value is 6.

And the “BIMF item 12 (I am taking good care of my baby's physical needs) score” value [4, 9]?
The value was 6.

What about the “BIMF item 14 (I make good decisions about my baby's health and well being) score” value [4, 9] of the same compound?
The value was 6.

What about the “BIMF item 20 (I am satisfied with the job I am doing as a new mother) score” value [4, 9] of the same compound?
The value was 5.

What about the “BIMF functional domain Self Care score” value ([4]; IDR 6 then 12 mg inhaled, Day 7, Day 0 score 9, maximum 18) of the same compound?
The value was 13.

What about the “BIMF functional domain Infant Care score” value ([4]; IDR 6 then 12 mg inhaled, Day 7, Day 0 score 12, maximum 12) of the same compound?
Its value is 12.

What about the “BIMF functional domain Mother-Child Interaction score” value ([4]; IDR 6 then 12 mg inhaled, Day 7, Day 0 score 15, maximum 18) of the same compound?
The value was 17.

What about the “BIMF functional domain Social Support score” value ([4]; IDR 6 then 12 mg inhaled, Day 7, Day 0 score 17, maximum 18) of the same compound?
The value was 18.

What about the “BIMF functional domain Management score” value ([4]; IDR 6 then 12 mg inhaled, Day 7, Day 0 score 28, maximum 36) of the same compound?
The value was 33.

What about the “BIMF functional domain Psychological Well-being score” value ([4]; IDR 6 then 12 mg inhaled, Day 7, Day 0 score 44, maximum 60) of the same compound?
The value was 53.

What about the “Total MADRS improvement” value [4, 10] of the same compound?
Its value is 28.

And the “Total MADRS score” value [4, 10]?
Its value is 1.

What about the “BIMF functional domain Adjustment % Improvement” value [4, 11] of the same compound?
The value was 20.00%.

And the “BIMF functional domain Infant Care % Improvement” value [4, 11]?
The value was 0.00%.

What about the “BIMF functional domain Management % Improvement” value [4, 11] of the same compound?
Its value is 18%.

What about the “BIMF functional domain Self Care % Improvement” value [4, 11] of the same compound?
The value was 44%.

And the “BPRS Tension improvement” value ([4]; IDR 6 then 12 mg inhaled, Discharge)?
The value was 5.

And the “PES score (intensity of the psychedelic experience)” value ([4]; nominal dose of 6 mg inhaled)?
The value was 17.3.

And the “Changes in vital parameters” value ([4]; shortly after administration)?
The value was “temporary, clinically non-relevant increase in heart rate and blood pressure”.

And the “PES score (intensity of the psychedelic experience)” value ([4]; subsequent dose of 12 mg inhaled)?
The value was 85.7.
